# Measurements: article PMC10112710 (Nature, 2022)
# Where a chain is given by its changes, count along the chain named. pKd: −log10 of the molar value.
# Columns and labels:
# [1] = target: T1, Drosophila Sestrin (Drosophila melanogaster, UniProt A0A0B4LGG4); format: binding; conditions: pH 7.4, on ice, 1 h; 150 mM KCl, 2.5 mM MgCl2, 0.1% Triton; Kd derived from IC50
# T1 sequence (A0A0B4LGG4 1-467): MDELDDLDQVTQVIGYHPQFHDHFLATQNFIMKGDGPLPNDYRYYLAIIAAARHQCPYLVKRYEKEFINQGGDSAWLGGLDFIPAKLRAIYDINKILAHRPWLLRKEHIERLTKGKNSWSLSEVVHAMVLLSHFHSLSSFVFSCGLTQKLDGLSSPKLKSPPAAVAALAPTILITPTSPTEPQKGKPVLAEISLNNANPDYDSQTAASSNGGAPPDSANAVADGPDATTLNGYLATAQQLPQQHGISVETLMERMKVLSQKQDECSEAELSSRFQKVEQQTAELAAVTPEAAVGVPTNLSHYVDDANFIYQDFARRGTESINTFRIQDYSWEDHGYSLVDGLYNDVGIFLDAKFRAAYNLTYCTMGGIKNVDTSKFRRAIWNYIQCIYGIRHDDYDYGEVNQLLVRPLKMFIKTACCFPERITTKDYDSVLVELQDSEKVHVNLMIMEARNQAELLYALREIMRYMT
# [2] = target: T2, Drosophila Sestrin (Drosophila melanogaster, UniProt A0A0B4LGG4, L431E); experiment: [3H]-leucine binding on immunopurified HA-tagged Sestrin; conditions: pH 7.4, on ice, 1 h; labelled compound; no binding detected
# T2 sequence (A0A0B4LGG4 1-467 L431E): T1 sequence (A0A0B4LGG4 1-467) with L431E
compound,measurement,setting,value
CC(C)C[C@H](N)C(=O)O [leucine],pKd,[1],~4.00
same,does not bind,[2],fly Sestrin L431E does not bind leucine (Fig. 1b)
